Reference: US10934310B2, “Inhibitors of Bruton's tyrosine kinase and method of their use” (JANSSEN PHARMACEUTICA NV, priority 2015, dated 2021)

What follows are molecules tested against unphosphorylated-BTK kinase domain (UP-BTK), GST-tagged human BTK (389-659aa) (Homo sapiens (Human), UniProt Q06187) (assay: BTK Kinase Lanthascreen Binding Assay). Conditions: Lanthascreen binding, 60 minutes incubation; pIC50 = negative log of the IC50 in molar.
Procedure: BTK Kinase Lanthascreen Binding Assay:
A BTK kinase lanthascreen binding assay monitors compound binding to unphosphorylated-BTK kinase domain (UP-BTK), by competing with a fluorescent labeled tracer. […] Data were analyzed using Xlfit™ version 5.3 from ID Business Solutions (Guildford), Microsoft Excel add-in. pIC50 refers to the negative log of the IC50 in molar.

Sequence of unphosphorylated-BTK kinase domain (UP-BTK), GST-tagged human BTK (389-659aa) (Q06187 389-659): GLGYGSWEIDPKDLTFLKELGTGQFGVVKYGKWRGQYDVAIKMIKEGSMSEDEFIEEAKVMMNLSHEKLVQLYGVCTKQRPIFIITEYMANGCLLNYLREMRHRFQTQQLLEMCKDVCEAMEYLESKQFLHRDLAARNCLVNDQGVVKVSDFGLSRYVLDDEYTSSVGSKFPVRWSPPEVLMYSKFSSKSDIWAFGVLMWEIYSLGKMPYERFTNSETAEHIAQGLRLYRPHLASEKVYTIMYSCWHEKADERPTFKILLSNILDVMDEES

Compared with `C=CC(=O)N[C@@H]1CCC[C@H]1NC(=O)c1sc2nccc3c2c1NC(=O)N3c1ncc(Oc2ccccc2)cn1` [Example 307, N-((1R,2R)-2-Acrylamidocyclopentyl)-4-oxo-5-(5-phenoxypyrimidin-2-yl)-4,5-dihydro-3H-1-thia-3,5,8-triazaacenaphthylene-2-carboxamide], `C=CC(=O)N[C@H]1CCC[C@H]1NC(=O)c1sc2nccc3c2c1NC(=O)N3c1cnc(Oc2ccccc2)nc1` [Example 310, N-((1R,2S)-2-Acrylamidocyclopentyl)-4-oxo-5-(2-phenoxypyrimidin-5-yl)-4,5-dihydro-3H-1-thia-3,5,8-triazaacenaphthylene-2-carboxamide] is higher in “BTK_I_binding pIC50” value: 7.58 for the first, 8.04 for the second.

Going from `C=CC(=O)N[C@@H]1CCC[C@H]1NC(=O)c1sc2nccc3c2c1NC(=O)N3c1cnc(Oc2ccccc2)cn1` [Example 311, N-((1R,2R)-2-Acrylamidocyclopentyl)-4-oxo-5-(5-phenoxypyrazin-2-yl)-4,5-dihydro-3H-1-thia-3,5,8-triazaacenaphthylene-2-carboxamide] to `C=CC(=O)N[C@@H]1CCC[C@H]1NC(=O)c1sc2nccc3c2c1NC(=O)N3c1cnc(Oc2ccccc2)nc1` [Example 314, N-((1R,2R)-2-Acrylamidocyclopentyl)-4-oxo-5-(2-phenoxypyrimidin-5-yl)-4,5-dihydro-3H-1-thia-3,5,8-triazaacenaphthylene-2-carboxamide], the “BTK_I_binding pIC50” value falls from 7.57 to 7.14.

Going from `C=CC(=O)N[C@H]1CCC[C@H]1NC(=O)c1sc2nccc3c2c1NC(=O)N3c1ccnc(-c2cccnc2)c1` [Example 317, 5-([2,3′-Bipyridin]-4-yl)-N-((1R,2S)-2-acrylamidocyclopentyl)-4-oxo-4,5-dihydro-3H-1-thia-3,5,8-triazaacenaphthylene-2-carboxamide] to `C=CC(=O)N[C@@H]1CCC[C@H]1NC(=O)c1sc2nccc3c2c1NC(=O)N3c1ccnc(-c2cccnc2)c1` [Example 326, 5-([2,3′-Bipyridin]-4-yl)-N-((1R,2R)-2-acrylamidocyclopentyl)-4-oxo-4,5-dihydro-3H-1-thia-3,5,8-triazaacenaphthylene-2-carboxamide], the “BTK_I_binding pIC50” value falls from 7.74 to 6.72.

Compared with `C=CC(=O)N[C@@H]1CC[C@H](NC(=O)c2sc3nccc4c3c2NC(=O)N4c2cnc(Oc3ccccc3)nc2)C1` [Example 319, N-((1S,3R)-3-Acrylamidocyclopentyl)-4-oxo-5-(2-phenoxypyrimidin-5-yl)-4,5-dihydro-3H-1-thia-3,5,8-triazaacenaphthylene-2-carboxamide], `C=CC(=O)N[C@@H]1CCCC[C@H]1NC(=O)c1sc2nccc3c2c1NC(=O)N3c1cnc(Oc2ccccc2)nc1` [Example 338, N-((1R,2R)-2-Acrylamidocyclohexyl)-4-oxo-5-(2-phenoxypyrimidin-5-yl)-4,5-dihydro-3H-1-thia-3,5,8-triazaacenaphthylene-2-carboxamide] is lower in “BTK_I_binding pIC50” value: 7.21 for the first, 6.39 for the second.

Going from `C=CC(=O)N[C@H]1CCC[C@H]1NC(=O)c1sc2nccc3c2c1NC(=O)N3c1cc(-c2ccccc2)cnn1` [Example 320, N-((1R,2S)-2-Acrylamidocyclopentyl)-4-oxo-5-(5-phenylpyridazin-3-yl)-4,5-dihydro-3H-1-thia-3,5,8-triazaacenaphthylene-2-carboxamide] to `C=CC(=O)N[C@@H]1CCC[C@H]1NC(=O)c1sc2nccc3c2c1NC(=O)N3c1cccc(-c2cccnc2)c1` [Example 324, N-((1R,2R)-2-Acrylamidocyclopentyl)-4-oxo-5-(3-(pyridin-3-yl)phenyl)-4,5-dihydro-3H-1-thia-3,5,8-triazaacenaphthylene-2-carboxamide], the “BTK_I_binding pIC50” value falls from 7.23 to 6.90.

Going from `C=CC(=O)N[C@H]1CCC[C@H]1NC(=O)c1sc2nccc3c2c1NC(=O)N3c1ccnc(-c2ccccn2)c1` [Example 325, 5-([2,2′-Bipyridin]-4-yl)-N-((1R,2S)-2-acrylamidocyclopentyl)-4-oxo-4,5-dihydro-3H-1-thia-3,5,8-triazaacenaphthylene-2-carboxamide] to `C=CC(=O)N[C@@H]1CCC[C@H]1NC(=O)c1sc2nccc3c2c1NC(=O)N3c1ccnc(-c2ccccn2)c1` [Example 342, 5-([2,2′-Bipyridin]-4-yl)-N-((1R,2R)-2-acrylamidocyclopentyl)-4-oxo-4,5-dihydro-3H-1-thia-3,5,8-triazaacenaphthylene-2-carboxamide], the “BTK_I_binding pIC50” value falls from 7.07 to 6.12.

Compared with `C=CC(=O)N[C@@H]1CCC[C@H]1NC(=O)c1sc2nccc3c2c1NC(=O)N3c1cccc(-c2ccccn2)c1` [Example 327, N-((1R,2R)-2-Acrylamidocyclopentyl)-4-oxo-5-(3-(pyridin-2-yl)phenyl)-4,5-dihydro-3H-1-thia-3,5,8-triazaacenaphthylene-2-carboxamide], `C=CC(=O)N[C@H]1CCC[C@H]1NC(=O)c1sc2nccc3c2c1NC(=O)N3c1ccc(Oc2cccnc2C)cc1` [Example 372, N-((1R,2S)-2-Acrylamidocyclopentyl)-5-(4-((2-methylpyridin-3-yl)oxy)phenyl)-4-oxo-4,5-dihydro-3H-1-thia-3,5,8-triazaacenaphthylene-2-carboxamide] is higher in “BTK_I_binding pIC50” value: 6.98 for the first, 7.93 for the second.

Going from `C=CC(=O)N[C@H]1CCC[C@H]1NC(=O)c1sc2nccc3c2c1NC(=O)N3c1cnc(NC(C)C)cc1C` [Example 330, N-((1R,2S)-2-Acrylamidocyclopentyl)-5-(6-(isopropylamino)-4-methylpyridin-3-yl)-4-oxo-4,5-dihydro-3H-1-thia-3,5,8-triazaacenaphthylene-2-carboxamide] to `C=CC(=O)N[C@@H]1CCC[C@H]1NC(=O)c1sc2nccc3c2c1NC(=O)N3c1ccnc(C(C)C)c1` [Example 337, N-((1R,2R)-2-Acrylamidocyclopentyl)-5-(2-isopropylpyridin-4-yl)-4-oxo-4,5-dihydro-3H-1-thia-3,5,8-triazaacenaphthylene-2-carboxamide], the “BTK_I_binding pIC50” value falls from 6.69 to 6.42.

First: CC(C)c1cc(N2C(=O)Nc3c(C(=O)N[C@@H]4CCC[C@H]4N)sc4nccc2c34)ccn1 [Example 336, N-((1R,2R)-2-Aminocyclopentyl)-5-(2-isopropylpyridin-4-yl)-4-oxo-4,5-dihydro-3H-1-thia-3,5,8-triazaacenaphthylene-2-carboxamide]
Second: C=CC(=O)N[C@H]1CCC[C@H]1NC(=O)c1sc2nccc3c2c1NC(=O)N3c1ccnc(C2CCC2)c1 [Example 376, N-((1R,2S)-2-Acrylamidocyclopentyl)-5-(2-cyclobutylpyridin-4-yl)-4-oxo-4,5-dihydro-3H-1-thia-3,5,8-triazaacenaphthylene-2-carboxamide]
The “BTK_I_binding pIC50” value of the first is lower: 6.01 for the first, 7.81 for the second.

Compared with `C=CC(=O)N[C@H]1CCC[C@H]1NC(=O)c1sc2nccc3c2c1NC(=O)N3c1ccc(Oc2cccnc2C)cc1C` [Example 367, N-((1R,2S)-2-acrylamidocyclopentyl)-5-(2-methyl-4-((2-methylpyridin-3-yl)oxy)phenyl)-4-oxo-4,5-dihydro-3H-1-thia-3,5,8-triazaacenaphthylene-2-carboxamide], `C=CC(=O)N[C@H]1CCC[C@H]1NC(=O)c1sc2nccc3c2c1NC(=O)N3c1ccc(Oc2cccc(C)n2)cc1C` [Example 368, N-((1R,2S)-2-acrylamidocyclopentyl)-5-(2-methyl-4-((6-methylpyridin-2-yl)oxy)phenyl)-4-oxo-4,5-dihydro-3H-1-thia-3,5,8-triazaacenaphthylene-2-carboxamide] is higher in “BTK_I_binding pIC50” value: 7.54 for the first, 8.13 for the second.

Going from `C=CC(=O)N[C@H]1CCC[C@H]1NC(=O)c1sc2nccc3c2c1NC(=O)N3c1ccc(Oc2cccc(C)n2)cc1` [Example 369, N-((1R,2S)-2-Acrylamidocyclopentyl)-5-(4-((6-methylpyridin-2-yl)oxy)phenyl)-4-oxo-4,5-dihydro-3H-1-thia-3,5,8-triazaacenaphthylene-2-carboxamide] to `C=CC(=O)N[C@H]1CCC[C@H]1NC(=O)c1sc2nccc3c2c1NC(=O)N3c1ccc(Oc2ccc(C)nc2)cc1` [Example 370, N-((1R,2S)-2-Acrylamidocyclopentyl)-5-(4-((6-methylpyridin-3-yl)oxy)phenyl)-4-oxo-4,5-dihydro-3H-1-thia-3,5,8-triazaacenaphthylene-2-carboxamide], the “BTK_I_binding pIC50” value falls from 8.06 to 7.79.

Going from `C=CC(=O)N[C@@H]1CCC[C@H]1NC(=O)c1sc2nccc3c2c1NC(=O)N3c1ccnc(C2CCC2)c1` [Example 379, N-((1R,2R)-2-Acrylamidocyclopentyl)-5-(2-cyclobutylpyridin-4-yl)-4-oxo-4,5-dihydro-3H-1-thia-3,5,8-triazaacenaphthylene-2-carboxamide] to `C=CC(=O)N[C@H]1CCC[C@H]1NC(=O)c1sc2nccc3c2c1NC(=O)N3c1ccc(O[C@H]2CCOC2)cc1C` [Example 383, N-((1R,2S)-2-Acrylamidocyclopentyl)-5-(2-methyl-4-(((S)-tetrahydrofuran-3-yl)oxy)phenyl)-4-oxo-4,5-dihydro-3H-1-thia-3,5,8-triazaacenaphthylene-2-carboxamide], the “BTK_I_binding pIC50” value rises from 6.80 to 7.45.

Same assay, conditions: read-out: BTK_I_binding pIC50 (converted)

`N[C@H]1CCC[C@H]1NC(=O)c1sc2nccc3c2c1NC(=O)N3c1cc(-c2ccccc2)cnn1` [Example 349, N-((1R,2S)-2-Aminocyclopentyl)-4-oxo-5-(5-phenylpyridazin-3-yl)-4,5-dihydro-3H-1-thia-3,5,8-triazaacenaphthylene-2-carboxamide] and `C=CC(=O)N[C@@H]1CCC[C@H](NC(=O)c2sc3nccc4c3c2NC(=O)N4c2ccnc(-c3ccccc3)c2)C1` [Example 351, N-((1S,3R)-3-Acrylamidocyclohexyl)-4-oxo-5-(2-phenylpyridin-4-yl)-4,5-dihydro-3H-1-thia-3,5,8-triazaacenaphthylene-2-carboxamide] cannot be ordered by IC50: > 1000 nM for the first, > 1000 nM for the second.
